Results taken from US20080221074A1, “Drug Screen and Treatment Method” (priority 2006, published 2008).
Where two headings read alike, the source gives them in different places.

Assays:
[1] = tested on: NF-κB; test: inhibition of NF-κB activation in NF-κB-bla THP-1 cells after LPS stimulation; assay type: cell-based, human
Description: Inhibition of NF-κB in vitro. […] Activation of NF-κB increases expression of a number of genes that mediate inflammation. This protocol used human THP-1 cells, which are human mononuclear blood cells with a monocyte phenotype. The cell line, referred to as NF-κB-bla THP-1, contained a β-lactamase reporter gene under the control of the NF-kB response element (Invitrogen, CellSensor™, product No. K1176). In this cell line, the β-lactamase reporter gene is stably integrated in the THP-1 cells. This cell line was used to detect agonists or antagonists of the NF-κB signaling pathway. These NF-κB-bla THP-1 cells respond to the presence of tumor necrosis factor alpha (TNFα) or bacterial lipopolysaccharide (LPS) by increased expression of the β-lactamase reporter gene. The level of β-lactamase enzyme activity was measured by fluorescence resonance energy transfer ratiometric detection. TNFα and LPS are both potent inflammation-inducing agents that activate NF-κB in THP1 cells. In this assay, compounds that decrease NF-κB activity, and thus β-lactamase, in the presence of TNFα or LPS are exerting an anti-inflammation activity.
The NF-κB-bla THP-1 cells were maintained by passaging or feeding as needed. […] The cells were plated at 20,000 cells/well in a 384-well Black-wall, clear bottom assay plates (Costar#3712-TC low fluorescence background plates) approximately 24 hours before adding either TNFα at 10 ng/mL or LPS at 0.2 ng/mL to activate NF-κB.
The assays were usually conducted 2-4 times for each compound and the values shown below are averages for each compound.

[2] = tested on: carrageenan-λ induced pleurisy; test: carrageenan-λ induced lung (pleural cavity) inflammation; assay type: in vivo, CD1 male mice; settings: exudate 4 h after
Description: Treatment of lung inflammation. Three compounds, 3β,16α-dihydroxy-17-oxoandrostane, 3α,16β,17β-trihydroxyandrostane and 3α,16α,17α-trihydroxyandrostane were used to treat inflammation in mice essentially as described (D. Auci et al., Ann. New York Acad. Sci. 1051:730-742 2005). Five to 8 week old CD1 male mice (Charles River, Calco, Italy) were used for the study. The animals were housed in a controlled environment and provided with standard rodent chow and water. Animal care was in compliance with applicable regulations on protection of animals. Mice were allocated into one of the following groups: (1) mice treated with 2% carrageenan-k in saline (carrageenan-λ treated control group), (2) mice treated with 0.1 mg, 0.01 mg or 0.001 mg 3β,16α-dihydroxy-17-oxoandrostane by subcutaneous (s.c.) injection 24 h and 1 h before carrageenan-λ administration, (3) mice treated with 0.1 mg, 0.01 mg or 0.001 mg of 3α,16α,17α-trihydroxyandrostane by s.c. injection 24 and 1 h before carrageenan; (4) mice treated with 0.1 mg, 0.01 mg or 0.001 mg […],16β,17β-trihydroxyandrostane by s.c. injection 24 h and 1 h before carrageenan-λ administration; (5) mice treated with vehicle (0.1% carboxymethylcellulose, 0.9% saline, 2% tween 80, 0.05% phenol) s.c. 24 h and 1 h before carrageenan-λ administration; (6) mice treated with rabbit anti-mouse polyclonal anti-TNF-α antibody (200 μg) given as an intraperitoneal bolus 24 h and 1 h before carrageenan-λ administration (positive control group); and (7) sham-operated mice that were not treated with carrageenan-λ. Each group consisted of 10 mice. All treatments were given in a final volume of 100 μL. Lung (pleural cavity) inflammation was induced as follows. The mice were anaesthetised with isoflurane and a skin incision was made at the level of the left sixth intercostal space. The underlying muscle was dissected and either 0.1 mL saline (control) or 0.1 mL saline containing 2% λ-carrageenan was injected into the pleural cavity. The carrageenan-λ is a potent inducer of inflammation, which is manifested in this protocol by accumulation of fluid and neutrophils in the pleural cavity. The incision was closed with a suture and the animals were allowed to recover.
At 4 h after the injection of carrageenan-λ, the animals were euthanized by exposure to CO2. The chest was carefully opened and the pleural cavity rinsed with 1 mL of saline solution containing heparin (5 U/mL) and indomethacin (10 μg/mL). The exudate and washing solution were removed by aspiration and the total volume measured. Any exudate contaminated with blood was discarded. The amount of exudate was calculated by subtracting the injected 1 mL volume from the total pleural cavity volume that was recovered. The neutrophils in the exudate were suspended in phosphate-buffer saline and counted with an optical microscope in a Burker's chamber after Trypan Blue staining. The results were analysed by one-way ANOVA followed by a Bonferroni post-hoc test for multiple comparisons. A p-value less than 0.05 was considered significant. For statistical analysis each group was compared to the control group of mice that were challenged with carrageenan-k and received no other treatment.
The table below describes the number of neutrophils from the treated animal groups relative to untreated control animals that were exposed to carrageenan-λ, but not treated with anything else (negative control group). The neutrophil number for the negative control group was set at 100% and other groups were compared to this.

[3] = tested on: human MG-63 osteosarcoma cell line; test: reversal of dexamethasone effects in MG-63 osteoblasts; assay type: cell-based; settings: for reversal of the decrease in osteoprotegerin synthesis: 30 nM dexamethasone, compound concentration stated with each value (17α-ethynyl triol: 1 nM)
[4] = tested on: EAE; test: PLP-induced EAE, treatment from clinical onset; assay type: in vivo, female SJL mice; settings: for course of EAE compared to vehicle-treated mice / mean cumulative score, treatment period: 0.1 mg q.d. po from clinical onset; for mean cumulative score, treatment period: day 1 to 30; for mean cumulative score, follow-up period: day 31 to day 54, post treatment
Procedure: The protocol for conducting the EAE animal model was described in (D. Auci et. al., Ann. NY. Acad. Sci. USA, 1051:730-42, 2005). Female SJL mice (6-8 week old, average body weight of 25 g) obtained from Charles-River were kept under standard laboratory conditions (non specific pathogen germ free) with ad libitum food and water and were allowed to adapt one week to their environment before commencing the study. […] EAA was induced with 200 μL of a 1:1 emulsion of 75 μg proteolipid protein (PLP) and 6 mg/mL Mycobacterium tuberculosis H37RA in complete Freund's adjuvant (CFA). The 200 μL injection was divided among four sites that drained into the auxiliary and inguinal lymphnodes. Pertussis toxin was used as a co-adjuvant and was administered i.p. at 200 ng/mouse on day zero and day two post immunization. Groups were treated with 0.1 mg of compound in 100 μL vehicle, or with vehicle alone, q.d. po (oral gavage) starting at clinical onset of disease and continuing through to day 30 post immunization. […] Clinical grading was carried out by an observer unaware of the treatment: 0=no illness, 1=flaccid tail, 2=moderate paraparesis, 3=severe paraparesis, 4=moribund state, 5=death.

[5] = LPS stimulation, 50% of the compound's maximum inhibition, averages, read-out: IC50

## 3α,17α-ethynylandrostane-3α/β,17β-diol
[1]; [5]
  IC50: 0.2 nM

## C[C@]12CC[C@H]3[C@@H](CCC4C[C@H](O)CC[C@@]43C)[C@@H]1C[C@H](O)[C@@H]2O (stereo partly drawn) [3α,16β,17β-trihydroxyandrostane]
[2]; 0.001 mg s.c. 24 h and 1 h before carrageenan-λ
  number of neutrophils relative to negative control group (set at 100%): 95%
[2]; 0.01 mg s.c. 24 h and 1 h before carrageenan-λ
  number of neutrophils relative to negative control group (set at 100%): 50%
[2]; 0.1 mg s.c. 24 h and 1 h before carrageenan-λ
  number of neutrophils relative to negative control group (set at 100%): 42%

## C[C@]12CC[C@H]3[C@@H](CCC4=C[C@H](O)CC[C@@]43C)[C@@H]1CC[C@@H]2O [3α,17β-dihydroxyandrost-4-ene]
[3]; similar protocols
  dexamethasone induced 11β-HSD mRNA: decrease
  dexamethasone-induced suppression of IL-8 and IL-6: statistically significant reversal

## C[C@]12CC[C@H]3[C@@H](CC=C4C[C@](O)(C(F)(F)C(F)(F)F)CC[C@@]43C)[C@@H]1CC[C@@H]2O [3α-pentafluoroethylandrost-5-ene-3β,17β-diol]
[1]
  maximum inhibition of NF-κB: 50%

## C[C@]12CC[C@H]3[C@@H](CC=C4C[C@](O)(C(F)(F)F)CC[C@@]43C)[C@@H]1CC[C@@H]2O [3α-trifluoromethylandrost-5-ene-3β,17β-diol]
[4]
  course of EAE compared to vehicle-treated mice: significantly improved course of EAE
  mean cumulative score, treatment period: 11.2±4.8
  mean cumulative score, follow-up period: 10.8±10.3

## C[C@]12CC[C@H](O)CC1=C[C@H](O)[C@@H]1[C@@H]2CC[C@@]2(C)[C@H]1CC[C@]2(C)O [3β,7β,17β-trihydroxy-17α-methylandrost-5-ene]
[3]
  reversal of the decrease in osteoprotegerin synthesis: normal osteoprotegerin levels at 10 nM

## CC12CCC(O)CC1=CC(O)C1C2CCC2(C)C1CCC2(O)C(F)(F)F (stereo not drawn) [3β,7β,17β-trihydroxy-17α-trifluoromethylandrost-5-ene]
[3]
  reversal of the decrease in osteoprotegerin synthesis: normal or basal osteoprotegerin levels at 1 μM compound

## CC12CCC(O)CC1=CC(=O)C1C2CCC2(C)C1CCC2(C)O (stereo not drawn) [3β,17β-dihydroxy-7-oxo-17α-methylandrost-5-ene]
[3]
  reversal of the decrease in osteoprotegerin synthesis: increased osteoprotegerin levels at 100 nM

## C[C@]12CC[C@H](O)C[C@@H]1CC[C@@H]1[C@@H]2CC[C@]2(C)[C@@H](O)C(=NO)C[C@@H]12 [5α-androstane-3β,17β-diol-16-oxime]
[4]
  course of EAE compared to vehicle-treated mice: very similar to that observed in the vehicle-treated mice

## C[C@]12CCCCC1=CC[C@@H]1[C@@H]2CC[C@]2(C)C(=O)[C@H](F)C[C@@H]12 [16α-fluoroandrost-5-ene-17-one]
[1]; Homo sapiens, THP-1
  IC50: 0.03 nM

## C[C@]12CC[C@H](O)C[C@@H]1CC[C@@H]1[C@@H]2CC[C@]2(C)C(=O)[C@H](I)C[C@@H]12 [16α-iodoepiandrosterone]
[1]; [5]
  IC50: 1.9 nM

## C[C@]12CC[C@H](O)C[C@@H]1CC[C@@H]1[C@@H]2CC[C@]2(C)C(=O)[C@@H](Br)C[C@@H]12 [16β-bromoepiandrosterone]
[1]
  maximum inhibition of NF-κB: 100%
[1]; [5]
  IC50: 600 nM

## C#C[C@]1(O)CC[C@H]2[C@@H]3CCC4=CC(=O)CC[C@]4(C)[C@H]3CC[C@@]21C [17α-ethynylandrost-4-ene-3-one-17β-ol]
[1]
  maximum inhibition of NF-κB: 80%

## C[C@]12CC[C@H](O)CC1=CC[C@@H]1[C@@H]2CC[C@@]2(C)[C@H]1CC[C@@]2(O)C(F)(F)F [17α-trifluoromethylandrost-5-ene-3β,17β-diol]
[4]
  course of EAE compared to vehicle-treated mice: significantly improved course of EAE

## C#C[C@@]1(O)CC[C@H]2[C@@H]3[C@@H](O)C=C4C[C@@H](O)CC[C@]4(C)[C@H]3CC[C@@]21C [17β-ethynylandrost-5-ene-3β,7β,17α-triol]
[4]
  mean cumulative score, treatment period: 14.9±17.6
  mean cumulative score, follow-up period: 18.4±20.6
[4]; end of the follow-up period
  EAE incidence: 85.7%
[4]; end of the treatment period
  EAE incidence: 57.1%

## Cc1cc(C)c(/C=C2\C(=O)Nc3ccccc32)[nH]1 [SU5416, Z-3-[(2,4-dimethylpyrrol-5-yl)methylidenyl]-2-indolinone, reference compound]
[4]
  course of EAE compared to vehicle-treated mice: very similar to that observed in the vehicle-treated mice

## C[C@]12CC[C@H]3[C@@H]([C@H](O)C=C4C[C@@H](O)CC[C@@]43C)[C@@H]1C[C@@H](O)[C@@H]2O [androst-5-ene-3β,7α,16α,17β-tetrol]
[3]
  reversal of the decrease in osteoprotegerin synthesis: near normal osteoprotegerin levels at 10 nM

## C[C@]12CC[C@H]3[C@@H](C(=NO)C=C4C[C@@H](O)CC[C@@]43C)[C@@H]1CC[C@@H]2O [androst-5-ene-3β,17β-diol-7-oxime]
[3]
  reversal of the decrease in osteoprotegerin synthesis: partially reversed the decrease in osteoprotegerin
